Reference: PMC10222203 (Pharmaceutics, 2023)
Like-named read-outs stand apart in the source and are kept apart here.

Columns and labels:
[1] = Simulation of unbound brain exposure (two-compartment model, Berkeley Madonna); set-up: species or system rat; settings: parameter used in simulation; for clearance: read-out: Systemic clearance, CL (converted); for Vd: rat
Method: The simulation was performed at given initial total plasma concentration to be equal to steady-state concentrations obtained in the neuroPK study (Table 2), utilizing the parameters listed in Supplementary Material Table S3. A two-compartment model consisting of blood and brain compartments with a focus on unbound concentrations was characterized (Supplementary Material Figure S1 describes the structure of the model and the codes).

[2] = rat; for Kp at 4 h / Kp uu: in vivo; for Kp at 4 h / Total brain-to-plasma concentration ratio, Kp,brain: 0.5 mg/kg, 4 h infusion, total dose 0.5 mg/kg; for Kp at 4 h: Total brain-to-plasma concentration ratio, Kp,brain; for Kp at 4 h / Kp uu / Kp,uu,brain as percent equilibrating across the BBB / Total brain-to-plasma concentration ratio, Kp,brain / Unbound brain-to-plasma concentration ratio, Kp,uu,brain: steady state; for Kp uu: Unbound brain-to-plasma concentration ratio, Kp,uu,brain; for Kp uu / Unbound brain-to-plasma concentration ratio, Kp,uu,brain: Kp,brain/(fu,plasma × Vu,brain); for Total steady-state plasma concentration, Cplasma,ss: listed in Table S3
Method: In order to assure the accurate assessment of the extent of BBB transport and to minimize the use of animals, the achievement of steady-state conditions of total plasma concentration and equilibration across the blood–brain interface are critical. […] The infusion was administered through the catheter placed in the femoral vein. Blood (200 µL) was sampled from the catheter in the femoral artery at 1, 2, and 3 h into heparinized tubes to ensure that steady-state conditions were obtained in plasma. At 4 h, blood was sampled through heart puncture using EDTA vacutainers (BD, Eysins, Switzerland), and the whole brain was collected. The blood samples were centrifuged, and plasma was collected. All samples were immediately frozen on dry ice and then kept at −20 °C pending analysis.
The in vivo total brain-to-plasma concentration ratio, Kp,brain, was studied by measuring steady-state concentrations in plasma and the total amount in the brain (Equation (1)). (1) Kp,brain=Abrain/Cplasma where Abrain is the total amount of peptide in the brain calculated using Equation (2), including compensation for the residual cerebral blood, and Cplasma is total plasma concentration (µg/mL).
The unbound brain-to-plasma ratio, Kp,uu,brain, was calculated using Equation (13) according to the CMA [37], where Kp,brain is the total brain-to-plasma ratio, fu,plasma is the unbound fraction in plasma as measured with equilibrium dialysis, and Vu,brain is the unbound volume of distribution in brain measured with the brain slice technique. (13) Kp,uu,brain=Kp,brain/fu,plasma×Vu,brain

[3] = tested on: brain-like endothelial cells (BLECs); experiment: in vitro
Method: (§1) The in vitro BBB model, consisting of CD34^+ endothelial cells (ECs) derived from hematopoietic stem cells in co-culture with bovine brain pericytes, was established as described by Cecchelli et al.. Written and informed consent was obtained for the collection of human umbilical cord blood, in compliance with French legislation. […] All experiments were carried out in line with the authorized protocol.
(§2) These isolated CD34+ cells were cultured in EGM-2, supplemented with 20% (v:v) FBS and 50 ng/mL vascular endothelial growth factor on 1% (w:v) gelatine-coated 24-well plates (2 × 10^5 cells/well). After 15–20 days, ECs are seen in the culture dish. For each experiment, the cells were expanded in 1% (w:v) gelatine-coated T75 flasks (BD Biosciences, Le Pont-de-Claix, France) in EGM-2. Bovine brain pericytes were isolated and characterized as described by Vandenhaute et al.. Sub-clones were cultured in Dulbecco’s Modified Eagle’s Medium supplemented with 20% (v:v) FBS, 2 mM L-glutamine, 50 µg/mL gentamycin, and 1 ng/mL basic fibroblast growth factor. At confluency, 5 × 10^4 cells were seeded in ECM-5 with 5% (v:v) FBS, 50 µg/mL gentamycin, and 0.5% endothelial cell growth factor in gelatine-coated 12-well plates (Costar, Corning Inc., New York, NY, USA). CD34^+-derived ECs were seeded at 8 × 10^4 cells per Matrigel-coated (BD Biosciences) insert (3401, Corning Inc., NY, USA) and put in co-culture with the bovine brain pericytes, with the pericytes at the bottom of the well, for 6 days to achieve brain-like endothelial cell (BLEC) characteristics (Figure 4b).
(§3) At the beginning of the permeability experiments, inserts with BLEC monolayers were transferred to new abluminal (receiver) compartments previously filled with 1.5 mL of RH buffer, and 500 µL of the compounds dissolved in RH buffer, with the addition of the paracellular marker sodium fluorescein (NaFlu), were added to the luminal (donor) compartment. After 3 h of incubation at 37 °C, with a shaking velocity of 60 rpm, aliquots were taken from the donor and receiver compartment. The BLEC monolayers were washed twice with cold RH buffer and lysed with RLT Lysis buffer. The samples were kept at −20 °C pending analysis in low-binding tubes.
(§4) An increase in the permeability to NaFlu in the presence of the peptide can indicate an increase in paracellular leakage and consequent loss of barrier integrity. To evaluate the ability of test compounds to cross Matrigel-coated filters without cells and to control for the adsorption to plastics and/or Matrigel, the NaFlu and peptide’s permeability over inserts without cells were also assessed. Mass balance (M.B%) was calculated from the amount of compound recovered in both compartments at the end of the experiment divided by the total amount added to the donor compartment at the start of the experiment.
(§5) Samples from both compartments as well as the lysed endothelial cells were analysed for fluorescence using a Synergy H1 (Biotek) set to quantify NaFlu (wavelengths Excitation 490 nm and Emission 525 nm) and with UPLC-MS/MS to assess the permeability and cellular uptake of the peptides. All experiments were performed in triplicate (n = 3 independent experiments per concentration and cCPPs).
(§6) Papp is the apparent permeability, J is the rate of appearance of the compound in the receiver compartment (amount/sec), and C0 is the concentration in the donor compartment at the start of the experiment (amount/mL).

[4] = in vitro
Method: as §1, §2, §3, §4, §5, §6

[5] = rat weight 0.3 kg, read-out: Apparent volume of distribution, Vd
[6] = read-out: Apparent volume of distribution unbound, Vd,u

Row | SMILES | clearance ([1]; rat weight 0.3 kg) [mL/min] | Vd [1, 5] [L] | Vd [1, 6] [L] | Kp at 4 h [2] | Kp uu [2] | Kp,uu,brain as percent equilibrating across the BBB [2] [%] | Total brain-to-plasma concentration ratio, Kp,brain [2] | Unbound brain-to-plasma concentration ratio, Kp,uu,brain [2] | Total steady-state plasma concentration, Cplasma,ss [2] [nmol/L] | also measured
1 | CC(C)C[C@@H]1NC(=O)CNC(=O)[C@H](CC(N)=O)NC(=O)[C@H](CCCNC(=N)N)NC(=O)[C@H]([C@@H](C)O)NC(=O)[C@@H]2CSSC[C@@H]3NC(=O)[C@H]([C@@H](C)O)NC(=O)CNC(=O)CNC(=O)[C@H](C(C)C)NC(=O)[C@@H]4CSSC[C@H](NC(=O)[C@H]([C@@H](C)O)NC(=O)[C@H](CSSC[C@H](NC(=O)[C@H](C(C)C)NC(=O)[C@@H]5CCCN5C1=O)C(=O)NCC(=O)N[C@@H](CCC(=O)O)C(=O)N[C@@H]([C@@H](C)O)C(=O)N4)NC(=O)CNC(=O)[C@@H]1CCCN1C(=O)[C@H]([C@@H](C)O)NC(=O)[C@H](CC(N)=O)NC3=O)C(=O)N[C@@H](CO)C(=O)N[C@@H](Cc1c[nH]c3ccccc13)C(=O)N1CCC[C@H]1C(=O)N[C@@H](C(C)C)C(=O)N2 [Kalata B1] | 0.48 | 0.0966 | 0.029 | 0.23 | 0.005 | 0.5 | 0.234 ± 0.083 | 0.00479 ± 0.0023 | 1096 | Percent of the initial amount in the lysed endothelial cells ([3]; BLECs exposed to 1000 nM peptide): 0.09%; Percent of the initial amount in the lysed endothelial cells ([3]; BLECs exposed to 2000 nM peptide): 0.23%; Percent of the initial amount in the lysed endothelial cells ([3]; BLECs exposed to 4000 nM peptide): 3.50%; Percent of the initial amount in the lysed endothelial cells ([3]; BLECs pre-exposed to 500 nM peptide): 0.19%; Papp ([4]; Endothelial permeability, Pe (average across concentrations), BLEC monolayer, 3 h, 37 °C): 3.83 ×10⁻⁶ cm/s; Papp ([4]; Papp, human in vitro BBB model, value used in simulation (Table S3)): 3.19 ×10⁻⁶ cm/s
2 | CC[C@H](C)[C@@H]1NC(=O)[C@@H]2CCCN2C(=O)[C@@H]2CCCN2C(=O)[C@H]([C@@H](C)CC)NC(=O)[C@H](CO)NC(=O)[C@H](CCCCN)NC(=O)[C@H]([C@@H](C)O)NC(=O)[C@@H]2CSSC[C@H](NC1=O)C(=O)N[C@@H](Cc1ccccc1)C(=O)N1CCC[C@H]1C(=O)N[C@@H](CC(=O)O)C(=O)NCC(=O)N[C@@H](CCCNC(=N)N)C(=O)N2 [SFTI-1, sunflower trypsin inhibitor-1] | 0.545 | 0.0573 | 0.054 | 0.06 | 0.13 | 13 | 0.0618 ± 0.0318 | 0.129 ± 0.0698 | 400 | CLin [1]: 0.0017 L/h; CLout [1]: 0.01317 L/h; Systemic clearance unbound, CLu [1]: 0.0307 L/h; Total steady-state plasma concentration, Cplasma,ss [1]: 0.6052 mg/L; Unbound steady-state plasma concentration, Cplasma,u,ss [1]: 0.5665 mg/L; Detection in the lysed endothelial cells ([3]; BLECs at end of transport experiment): did not detect; Papp A→B at 3 h ([4]; human, pH 7.4): 2.62 ×10⁻⁶ cm/s; Papp at 3 h ([4]; human, pH 7.4, Endothelial permeability, Pe (average across concentrations), BLEC monolayer, 3 h, 37 °C): 3.8 ×10⁻⁶ cm/s
